According to article PMC6718736, “Validation of in vitro methods for human cytochrome P450 enzyme induction: Outcome of a multi-laboratory study” (Toxicology in Vitro, 2019):
Where two headings read alike, the source gives them in different places.

Assays:
[1] = cited from earlier work
CYP3A4 [2] = test: CYP3A4 enzyme induction assay in cryopreserved primary human hepatocytes (PHH); settings: for Assigned classification CYP3A4: PHH
CYP1A2 [3] = test: CYP1A2 enzyme induction assay in cryopreserved primary human hepatocytes (PHH); type: in vitro ADME; settings: for Prediction in vivo inducer: Cmax/F2 >0.5 criterion; for Assigned classification CYP1A2: PHH;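 for Assigned classification CYP1A2: code 1 means positive inducer and 0 means non-inducer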
CYP1A2 [4] = settings: cited from earlier work; for Induction in vivo: CYP1A2, human, ref Table 1; for CYP induction in vivo literature reference: CYP1A2: human in vivo, CYP named without remark = induced, ref references in the cell, Washington University database, Hoffmann et al. (2014), Pelkonen et al. (2008), Hukkanen et al. (2012); for CYP1A2 induction in vivo: human, ref Andersson, 1996
CYP = settings: cited from earlier work; for CYP induction in vitro (human hepatocytes): CYP isoforms induced, ref Abadie et al. (2009), Richert et al. (2010), Preissner et al. (2010), Hoffmann et al. (2014)
CYP1A2 [5] = test: CYP1A2 enzyme induction assay in cryopreserved HepaRG cells (phenacetin probe, LC/MS); type: in vitro ADME, human; settings: for Prediction in vivo inducer: Cmax/F2 >0.5 criterion; for F2: in vitro concentration producing 2-fold induction; for Assigned classification CYP1A2: HepaRG; for Assigned classification CYP1A2: key: 1=Positive=inducer; 0=Negative=non-inducer
CYP2B6 [6] = test: CYP2B6 enzyme induction assay in cryopreserved HepaRG cells (bupropion probe, LC/MS); type: in vitro ADME, human; settings: for Prediction in vivo inducer: Cmax/F2 >0.5 criterion; for Assigned classification CYP2B6: HepaRG; for Assigned classification CYP2B6: key: 1=Positive=inducer; 0=Negative=non-inducer
CYP2B6 [7] = test: CYP2B6 enzyme induction assay in cryopreserved primary human hepatocytes (PHH); type: in vitro ADME; settings: for Assigned classification CYP2B6: PHH;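 for Assigned classification CYP2B6: code 1 means positive inducer and 0 means non-inducer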
CYP3A4 [8] = test: CYP3A4 enzyme induction assay in cryopreserved HepaRG cells (midazolam probe, LC/MS); type: in vitro ADME, human; settings: for Assigned classification CYP3A4: HepaRG; for Assigned classification CYP3A4: key: 1=Positive=inducer; 0=Negative=non-inducer
CYP3A4 [9] = settings: cited from earlier work; for CYP induction in vivo literature reference: CYP3A4: human in vivo, CYP named without remark = induced, ref references in the cell, Washington University database, Hoffmann et al. (2014), Pelkonen et al. (2008), Hukkanen et al. (2012)
[10] = human in vivo plasma concentration, normal dose
[11] = human in vivo, normal dose (Table 10)

## COc1ccc2[nH]c([S+]([O-])Cc3ncc(C)c(OC)c3C)nc2c1 (stereo not shown) [Omeprazole]
[1]; [10]
  Cmax: 0.68 to 3.5 µM
[1]; [11]
  Cmax: 0.68 to 3.5 µM
CYP3A4 [2]; CYP3A4, PHH
  F2: 38.7 to 117 µM
  Induction in vitro: Yes
  Prediction in vivo inducer: No
CYP3A4 [2]; CYP3A4, PHH, Cmax/F2 >0.5 criterion
  Prediction in vivo inducer: non-inducer
CYP3A4 [2]; Lab 1, batch 0 6 A
  Assigned classification CYP3A4: 1
CYP3A4 [2]; Lab 1, batch 4 0 8
  Assigned classification CYP3A4: 0
CYP3A4 [2]; Lab 1, batch 8 0 8
  Assigned classification CYP3A4: 1
CYP3A4 [2]; Lab 2, batch 0 6 A
  Assigned classification CYP3A4: 1
CYP3A4 [2]; Lab 2, batch 4 0 8
  Assigned classification CYP3A4: 0
CYP3A4 [2]; Lab 2, batch 8 0 8
  Assigned classification CYP3A4: 0
CYP3A4 [2]; Lab 3, batch 0 6 A
  Assigned classification CYP3A4: 1
CYP3A4 [2]; Lab 3, batch 4 0 8
  Assigned classification CYP3A4: 0
CYP3A4 [2]; Lab 3, batch 8 0 8
  Assigned classification CYP3A4: 1
CYP1A2 [3]; CYP1A2, PHH
  Prediction in vivo inducer: No
CYP1A2 [3]; CYP1A2, PHH, listed as omeprazole
  Prediction in vivo inducer: non-inducer
CYP1A2 [3]; CYP1A2, PHH, in vitro concentration producing 2-fold induction
  F2: 38.6 to 118 µM
CYP1A2 [3]; CYP1A2, PHH, positive in one donor in each of the three laboratories
  Induction in vitro: Yes
CYP1A2 [3]; Lab 1, batch 0 6 A
  Assigned classification CYP1A2: 1
CYP1A2 [3]; Lab 1, batch 4 0 8
  Assigned classification CYP1A2: 1
CYP1A2 [3]; Lab 1, batch 8 0 8
  Assigned classification CYP1A2: 1
CYP1A2 [3]; Lab 2, batch 0 6 A
  Assigned classification CYP1A2: 1
CYP1A2 [3]; Lab 2, batch 4 0 8
  Assigned classification CYP1A2: 1
CYP1A2 [3]; Lab 2, batch 8 0 8
  Assigned classification CYP1A2: 1
CYP1A2 [3]; Lab 3, batch 0 6 A
  Assigned classification CYP1A2: 1
CYP1A2 [3]; Lab 3, batch 4 0 8
  Assigned classification CYP1A2: 1
CYP1A2 [3]; Lab 3, batch 8 0 8
  Assigned classification CYP1A2: 1
CYP1A2 [4]
  Induction in vivo: No
  CYP induction in vivo literature reference: CYP1A2: NOT induced at clinically used doses
CYP1A2 [4]; 120 mg doses or poor metabolizers (40 mg dose)
  CYP1A2 induction in vivo: weak inducer
CYP1A2 [4]; normal doses (20-40 mg)
  CYP1A2 induction in vivo: not a CYP1A2 inducer
CYP
  CYP induction in vitro (human hepatocytes): CYP1A2, CYP2B6, CYP3A4
CYP1A2 [5]; CYP1A2, HepaRG cells
  Prediction in vivo inducer: No
  F2: 12.9 µM
CYP1A2 [5]; CYP1A2, HepaRG cells, listed as omeprazole
  Prediction in vivo inducer: non-inducer
CYP1A2 [5]; CYP1A2, HepaRG cells, positive in one batch in each of the three laboratories
  Induction in vitro: Yes
CYP1A2 [5]; Lab 1, batch 20
  Assigned classification CYP1A2: 1
CYP1A2 [5]; Lab 1, batch 35
  Assigned classification CYP1A2: 1
CYP1A2 [5]; Lab 1, batch 36
  Assigned classification CYP1A2: 1
CYP1A2 [5]; Lab 2, batch 20
  Assigned classification CYP1A2: 1
CYP1A2 [5]; Lab 2, batch 35
  Assigned classification CYP1A2: 1
CYP1A2 [5]; Lab 2, batch 36
  Assigned classification CYP1A2: 1
CYP1A2 [5]; Lab 3, batch 20
  Assigned classification CYP1A2: 1
CYP1A2 [5]; Lab 3, batch 35
  Assigned classification CYP1A2: 1
CYP1A2 [5]; Lab 3, batch 36
  Assigned classification CYP1A2: 1
CYP2B6 [6]; CYP2B6, HepaRG cells
  Prediction in vivo inducer: No
CYP2B6 [6]; CYP2B6, HepaRG cells, listed as omeprazole
  Prediction in vivo inducer: predicted as a non-inducer
CYP2B6 [6]; CYP2B6, HepaRG cells, positive in one batch in each of the three laboratories
  Induction in vitro: No
CYP2B6 [6]; Lab 1, batch 20
  Assigned classification CYP2B6: 0
CYP2B6 [6]; Lab 1, batch 35
  Assigned classification CYP2B6: 0
CYP2B6 [6]; Lab 1, batch 36
  Assigned classification CYP2B6: 0
CYP2B6 [6]; Lab 2, batch 20
  Assigned classification CYP2B6: 0
CYP2B6 [6]; Lab 2, batch 35
  Assigned classification CYP2B6: 0
CYP2B6 [6]; Lab 2, batch 36
  Assigned classification CYP2B6: 1
CYP2B6 [6]; Lab 3, batch 20
  Assigned classification CYP2B6: 1
CYP2B6 [6]; Lab 3, batch 35
  Assigned classification CYP2B6: 0
CYP2B6 [6]; Lab 3, batch 36
  Assigned classification CYP2B6: 0
CYP2B6 [7]; CYP2B6, PHH
  F2: 38.6 to 116 µM
  Induction in vitro: Yes
  Prediction in vivo inducer: No
CYP2B6 [7]; CYP2B6, PHH, Cmax/F2 >0.5 criterion
  Prediction in vivo inducer: non-inducer
CYP2B6 [7]; Lab 1, batch 0 6 A
  Assigned classification CYP2B6: 1
CYP2B6 [7]; Lab 1, batch 4 0 8
  Assigned classification CYP2B6: 1
CYP2B6 [7]; Lab 1, batch 8 0 8
  Assigned classification CYP2B6: 0
CYP2B6 [7]; Lab 2, batch 0 6 A
  Assigned classification CYP2B6: 1
CYP2B6 [7]; Lab 2, batch 4 0 8
  Assigned classification CYP2B6: 0
CYP2B6 [7]; Lab 2, batch 8 0 8
  Assigned classification CYP2B6: 0
CYP2B6 [7]; Lab 3, batch 0 6 A
  Assigned classification CYP2B6: 1
CYP2B6 [7]; Lab 3, batch 4 0 8
  Assigned classification CYP2B6: 1
CYP2B6 [7]; Lab 3, batch 8 0 8
  Assigned classification CYP2B6: 1
CYP3A4 [8]; CYP3A4, HepaRG cells
  Induction in vitro: No
  Prediction in vivo inducer: No
CYP3A4 [8]; CYP3A4, HepaRG cells, Cmax/F2 >0.5 criterion
  Prediction in vivo inducer: non-inducer
CYP3A4 [8]; Lab 1, batch 20
  Assigned classification CYP3A4: 0
CYP3A4 [8]; Lab 1, batch 35
  Assigned classification CYP3A4: 0
CYP3A4 [8]; Lab 1, batch 36
  Assigned classification CYP3A4: 0
CYP3A4 [8]; Lab 2, batch 20
  Assigned classification CYP3A4: 0
CYP3A4 [8]; Lab 2, batch 35
  Assigned classification CYP3A4: 0
CYP3A4 [8]; Lab 2, batch 36
  Assigned classification CYP3A4: 0
CYP3A4 [8]; Lab 3, batch 20
  Assigned classification CYP3A4: 0
CYP3A4 [8]; Lab 3, batch 35
  Assigned classification CYP3A4: 0
CYP3A4 [8]; Lab 3, batch 36
  Assigned classification CYP3A4: 0
CYP3A4 [9]; CYP3A4, human in vivo reference classification (Table 11)
  Induction in vivo: No
CYP3A4 [9]
  CYP induction in vivo literature reference: CYP3A4: NOT induced

## O=C1C(CC[S+]([O-])c2ccccc2)C(=O)N(c2ccccc2)N1c1ccccc1 (stereo not shown) [Sulfinpyrazone]
[1]; [10]
  Cmax: 45 µM
[1]; [11]
  Cmax: 45 µM
CYP3A4 [2]; CYP3A4, PHH
  F2: 3.66 µM
CYP1A2 [4]
  Induction in vivo: Yes
  CYP induction in vivo literature reference: CYP1A2: CYP1A2
CYP; CYP2B6, ref Faucette et al., 2004
  CYP2B6 induction in human hepatocytes: demonstrated
CYP
  CYP induction in vitro (human hepatocytes): CYP1A2, CYP2B6, CYP3A4
CYP1A2 [5]; CYP1A2, HepaRG cells
  F2: 11 µM
CYP2B6 [6]; CYP2B6, HepaRG cells, in vitro concentration producing 2-fold induction
  F2: 11.0 to 33.0 µM
CYP2B6 [7]; CYP2B6, PHH
  F2: 33 µM
CYP3A4 [8]; CYP3A4, HepaRG cells
  F2: 11 µM
CYP3A4 [9]
  CYP induction in vivo literature reference: CYP3A4: CYP3A4
